This is an account of results in BindingDB's records for doi:10.1016/s0960-894x(99)00666-6 (Merck Research Laboratories, 2000).

The experiment has as its target Integrase (Human immunodeficiency virus 1, UniProt Q7ZJM1). As to the kind of experiment: ChEBML_90573. From the text:
Inhibitory activity against HIV-1 integrase

Chain of Integrase (Q7ZJM1 whole entry): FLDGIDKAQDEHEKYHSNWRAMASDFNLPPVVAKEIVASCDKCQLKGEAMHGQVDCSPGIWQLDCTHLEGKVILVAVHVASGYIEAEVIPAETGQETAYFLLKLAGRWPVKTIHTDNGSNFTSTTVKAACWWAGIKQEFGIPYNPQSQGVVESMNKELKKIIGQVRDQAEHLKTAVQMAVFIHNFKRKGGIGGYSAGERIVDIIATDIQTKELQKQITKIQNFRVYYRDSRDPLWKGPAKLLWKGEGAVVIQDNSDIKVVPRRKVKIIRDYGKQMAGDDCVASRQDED

The molecule `CCCCC(C)/C=C(\C)C(=O)O[C@@H]1CC[C@H](C(=O)O)[C@@]2(C)CC(=C(C)C=O)C(=O)C=C12` (stereo partly drawn) [(1S,4R,7S,8aR)-4-((E)-2,4-Dimethyl-oct-2-enoyloxy)-7-(1-formyl-vinyl)-8a-methyl-6-oxo-1,2,3,4,6,7,8,8a-octahydro-naphthalene-1-carboxylic acid] gave an IC50 of 3 µM. This counts as single-digit micromolar.

One may read the IC50 as the midpoint of a concentration-inhibition curve. Read a low IC50 as greater potency.
